Test results: patent US7459481B2, “Stimulation of CPT-1 as a means to reduce weight” (The Johns Hopkins University School of Medicine Licensing …, priority 2002, dated 2008)

Key:
[1] = system: MCF-7 cells; settings: cited from earlier work
[2] = system: MCF-7 cells; experiment: Fatty acid oxidation ([1-14C]palmitate to 14CO2) in MCF-7 cells; assay type: cell-based, human
Experimental: (§1) Human breast cancer cell line MCF-7 was obtained from the American Type Culture Collection. 1×10^6 MCF-7 cells were plated in T-25 flasks in triplicate and incubated overnight at 37° C. Drugs were then added as indicated diluted from 5 mg/ml stock in DMSO. After 2 hours, medium with drugs was removed and cells were preincubated for 30 min. with 1.5 ml of the following buffer: 114 mM NaCl, 4.7 mM KCl, 1.2 mM KH2PO4, 1.2 mM MgSO4, glucose 11 mM. After preincubation, 200 μl of assay buffer was added containing: 114 mM NaCl, 4.7 mM KCl, 1.2 mM KH2PO4, 1.2 mM MgSO4, glucose 11 mM, 2.5 mM palmitate (containing with 10 μCi of [1-^14C]palmitate) bound to albumin, 0.8 mM L-carnitine, and cells were incubated at 37° C. for 2 h. Following the incubation, 400 μl of benzethonium hydrochloride was added to the center well to collect released ^14CO2. Immediately, the reaction was stopped by adding 500 μl of 7% perchloric acid to the cells. The flasks with wells were then incubated for 2 h at 37° C. after which the benzothonium hydrochloride was removed and counted for ^14C. Blanks were prepared by adding 500 μl of 7% perchloric acid to the cells prior to the incubation with the assay buffer for 2 h.
FAS activity was measured by monitoring the malonyl-CoA dependent oxidation of NADPH spectrophotometrically at OD340 in 96-well plates, as described in International Patent Publication WO 2004/005277. The IC50 for the compounds against FAS was determined by plotting the change in OD340 against time for each inhibitor concentration tested and determining the rate of change by linear regression. The concentration of a particular compound yielding 50% inhibition of the rate for FAS in the absence of the compound is the IC50. Stimulation of CPT-1 activity was measured as described in Example 2, except the cells were preincubated with the compound for 2 hours at the concentrations indicated in the table. Stimulation of Fatty acid oxidation was determined as described in Example 1 for cells preincubated with the compounds at the concentrations indicated in the table.

[3] = system: 3T3-L1 adipocytes; experiment: Fatty acid oxidation in differentiated 3T3-L1 adipocytes; assay type: cell-based, mouse; settings: 20 μg/ml or greater, 2 hours, FIG. 6
Experimental: as §1, with “Following the incubation, 400 μl of benzethonium hydrochloride was added to the center well to collect released ^14CO2. Immediately, the reaction was stopped by adding 500 μl of 7% perchloric acid to the cells.” left out, “Blanks were prepared by adding 500 μl of 7% perchloric acid to the cells prior to the incubation with the assay buffer for 2 h.” left out
(§2) To expand the study of effects of C75 on fatty acid metabolism beyond cancer cell lines to normal adipocytes, differentiated (non-transformed) mouse NIH 3T3-L1 adipocytes were used in assays similar to those performed with the MCF-7 cells. […] The differentiated cells were ready to be used for experiments in 7-10 days.
(§3) C75 increased CPT-1 activity and fatty acid metabolism in the NIH 3T3-L1 cells differentiated into adipocytes. […] CPT-1 activity, fatty acid oxidation, and total cellular ATP were measured as described in Examples 2, 1, and 4. […]

[4] = system: CPT-1; experiment: CPT-1 activity in differentiated 3T3-L1 adipocytes; assay type: cell-based, mouse; settings: 2 hours
Experimental: CPT-1 activity was assayed in MCF-7 cells by the following published procedure: MCF-7 cells were plated in DMEM with 10% fetal bovine serum at 10^6 cells in 24-well plates in triplicate. Following overnight incubation at 37° C., the medium was removed and replaced with 700 μl of assay medium consisting of: 50 mM imidazole, 70 mM KCl, 80 mM sucrose, 1 mM EGTA, 2 mM MgCl2, 1 mM DTT, 1 mM KCN, 1 mM ATP, 0.1% fatty acid free bovine serum albumin, 70 μM palmitoyl-CoA, 0.25 μCi [methyl-^14C]L-carnitine, 40 μg digitonin with or without 20 μM malonyl-CoA. After incubation for 6 minutes at 37° C., the reaction was stopped by the addition of 500 μl of ice-cold 4 M perchloric acid. Cells were then harvested and centrifuged at 13,000×g for 5 min. […] The butanol phase was counted by liquid scintillation and represents the acylcarnitine derivative.
as §2, §3

SMILES: C=C1C(=O)OC(CCCCCCCC)C1C(=O)O (stereo not drawn) [Compound C75]
- increase in malonyl-CoA [1]: > 5 fold
- Fatty Acid Oxidation (% Control) ([2]; 10 μg/mL): 400 % Control
- effect on fatty acid oxidation ([2]; MCF-7, doses from 5-20 μg/ml): increased fatty acid oxidation
- increase in fatty acid oxidation compared to the control ([2]; MCF-7, treated 2 hours before measurement, FIG. 1): 156%
- fatty acid oxidation [3]: significantly increased
- increase in CPT-1 activity above control [4]: 377%
